Source: patent US20130302305A1, “Methods for Treating Gout in Patients Subpopulations” (Metabolex, Inc., priority 2011, published 2013)
Where “and” joins values, the source holds several entries; their conditions need not be identical. Equal entries are not always repeated. One block for each molecule: values may come before it.

Tests used:
[1] = test system: type 2 diabetic patients; experiment: Pooled analysis of four phase 2 studies: change in serum uric acid (sUA) from baseline; format: in vivo, human; settings: for reduction in serum uric acid from baseline: all analysed patients, 12-24 weeks (pooled)
Method: (§1) FIGS. 1-4 were generated based on the pooled analysis of four phase 2 studies conducted with (−)-halofenate in type 2 diabetic patients. In these studies a total of 955 patients were enrolled. In the M102-20303 study, two dose levels of (−)-halofenate (200 mg and 400 mg) or placebo were given orally daily to a total of 217 patients for 12 weeks. In the M102-20405 study, (−)-halofenate at a dose of 600 mg or placebo was given daily to a total of 100 patients for 12 weeks. In the M102-20509 study, three dose levels of (−)-halofenate (200 mg, 400 mg and 600 mg), Actos® 30 mg or placebo were given orally daily to a total of 396 patients for 16 weeks. In M102-20814 study, two dose levels of (−)-halofenate (400 mg and 600 mg), Actos® 30-45 mg or placebo were given orally daily to a total of 242 patients for 24 weeks. In these studies, change in serum uric acid (sUA) from baseline was one of the important endpoints. In order to maintain the blinded status, the sUA results following administration of double-blind study medication were not available to any parties until the studies were unblinded. Patients who added or changed the existing doses of medications that are known to influence serum uric acid levels were excluded from the serum uric acid analysis. Patients received either (−)-halofenate or matching placebo during the study were included in this exploratory analysis. Patients who received (−)-halofenate during the study but had no measurable (−)-halofenate in the blood were defined as non-compliant and were excluded from the analysis. This analysis indicated statistically significant dose dependent reduction in serum uric acid from baseline: 2% in the placebo group (n=252), −11% in the 200 mg group (n=125), −20% in the 400 mg group (n=174), and −27% in the 600 mg group (n=159); p<0.0001 for all dose groups. In order to evaluate the sUA response in CKD patients, in addition to the analysis described above, the patients were subdivided based on their baseline kidney function status. The kidney function status of each patient was evaluated by estimating the creatinine clearance (glomerular filtration rate) using the Cockcroft-Gault equation [Cockcroft-Gault GFR=(140−age)×(Body weight in kg)×(0.85 if female)/(72×serum creatinine)]. For estimating the baseline creatinine clearance, baseline body weight (kg) and baseline serum creatinine values were used and similarly, for estimating the end-of-the study creatinine clearance, end-of-study body weight and end-of-study serum creatinine values were used. […] In this analysis there were no patients with CKD4 (severe CKD) or CKD5 (kidney failure).

[2] = test system: type 2 diabetic patients; experiment: Pooled analysis of four phase 2 studies: estimated creatinine clearance (Cockcroft-Gault), kidney function status; format: in vivo, human; settings: for Mean Baseline estimated Cr Cl (mL/min) (second column of that head, c3): all analysed patients
Method: as §1
The changes in estimated creatinine clearance values in the 200 mg, 400 mg, and 600 mg groups compared to placebo group were not statistically significant.

[3] = test system: type 2 diabetes patients inadequately controlled on existing insulin therapy; experiment: Phase 2 study M102-20303: HbA1c; format: in vivo, human; settings: for reduction from baseline in HbA1c: all patients, endpoint at week 16
Method: (§2) FIGS. 5-7 were generated based on a randomized, double-blind, placebo-controlled phase 2 study, M102-20303. In this study, two dose levels of (−)-halofenate (200 mg and 400 mg) or placebo were given orally daily for 12 weeks to a total of 217 type 2 diabetes patients who were inadequately controlled on existing insulin therapy. In addition to their stable dose of insulin, these patients received the study drug for 12 weeks, and followed up for an additional four weeks. In this study, change in HbA1c from baseline at week 16 was the primary endpoint and changes in fasting plasma glucose and triglyceride from baseline at Week 12 were secondary endpoints. In order to maintain the blinded status, the HbA1c results following administration of double-blind study medication were not available to any parties until the studies were unblinded. In this study, patients were not allowed to add any other glucose lowering agent(s) or to change their existing doses of insulin. Patients who added lipid lowering agent(s) or changed their existing doses of lipid lowering agent(s) were excluded from the triglyceride analysis. Patients who received (−)-halofenate during the study but had no measurable (−)-halofenate in the blood were defined as non-compliant and were excluded from the analysis.

[4] = test system: type 2 diabetes patients inadequately controlled on existing insulin therapy; experiment: Phase 2 study M102-20303: fasting plasma glucose (FPG); format: in vivo, human; settings: for mean observed change in FPG from baseline at Week 12: all patients
Method: as §2

[5] = test system: type 2 diabetes patients inadequately controlled on existing insulin therapy; experiment: Phase 2 study M102-20303: triglycerides; format: in vivo, human; settings: CKD2 and CKD3 (mild to moderate CKD) patients, 400 mg daily for 12 weeks
Method: as §2

[6] = test system: gout patients; settings: monotherapy at 40, 80, 120, 160 and 240 mg/day; cited from earlier work
[7] = CKD2 and CKD3 (mild to moderate CKD) patients, 400 mg daily for 12 weeks

Mean Baseline estimated Cr Cl (mL/min) (second column of that head, c3) ([2]; 200 mg daily): 102.4 mL/min | change in CrCL as compared to placebo ([2]; 200 mg, 400 mg and 600 mg per day (FIG. 4)): no clinically significant change in CrCL | Mean Baseline estimated Cr Cl (mL/min) (second column of that head, c3) ([2]; 400 mg daily): 103.5 mL/min | Mean Baseline estimated Cr Cl (mL/min) (second column of that head, c3) ([2]; 600 mg daily): 100.6 mL/min
Compound: CC(=O)NCCOC(=O)[C@H](Oc1cccc(C(F)(F)F)c1)c1ccc(Cl)cc1 [(−)-halofenate, (−)-(R)-(4-chloro-phenyl)-(3-trifluoromethyl-phenoxy)-acetic acid 2-acetylamino-ethyl ester]
Mean Change in sUA (%) ([1]; 200 mg daily, CKD2 and CKD3 patients): −14% and −14.30% | Mean Change in sUA (%) ([1]; 400 mg daily, CKD2 and CKD3 patients): −21% and −21.30% | Mean Change in sUA (%) ([1]; 600 mg daily, CKD2 (mild CKD) patients): −28% and −28.2% | Mean Change in sUA (%) ([1]; 600 mg daily, CKD2 and CKD3 patients): −29% | Mean Change in sUA (%) ([1]; 600 mg daily, CKD3 (moderate CKD) patients): −36% and −35.6% | Mean Change in sUA (%) ([1]; 600 mg daily, Normal and CKD1 patients): −25% and −25.3% | urate-lowering effect when co-administered with aspirin ([1]; 200, 400 and 600 mg daily with low to medium doses of aspirin (<= about 325 mg/day) vs no aspirin): does not result in clinically significant loss of the urate-lowering effect | urate-lowering effect when co-administered with diuretics ([1]; 200, 400 and 600 mg daily with thiazide or other diuretics vs no diuretics): does not result in clinically significant loss of the urate-lowering effect | reduction in serum uric acid from baseline ([1]; 200 mg orally daily): −11% | reduction in serum uric acid from baseline ([1]; 400 mg orally daily): −20% | reduction in serum uric acid from baseline ([1]; 600 mg orally daily): −27% | change in serum uric acid (sUA) from baseline ([1]; aspirin treated patients (<= about 325 mg/day), 200 mg daily): −13% | change in serum uric acid (sUA) from baseline ([1]; aspirin treated patients (<= about 325 mg/day), 400 mg daily): −20% | change in serum uric acid (sUA) from baseline ([1]; aspirin treated patients (<= about 325 mg/day), 600 mg daily): −27% | change in serum uric acid (sUA) from baseline ([1]; patients not taking any diuretics, 200 mg daily): −11% | change in serum uric acid (sUA) from baseline ([1]; patients not taking any diuretics, 400 mg daily): −21% | change in serum uric acid (sUA) from baseline ([1]; patients not taking any diuretics, 600 mg daily): −27% | change in serum uric acid (sUA) from baseline ([1]; patients not taking aspirin, 200 mg daily): −10% | change in serum uric acid (sUA) from baseline ([1]; patients not taking aspirin, 400 mg daily): −20% | change in serum uric acid (sUA) from baseline ([1]; patients not taking aspirin, 600 mg daily): −26% | change in serum uric acid (sUA) from baseline ([1]; patients taking any diuretics, 200 mg daily): −12% | change in serum uric acid (sUA) from baseline ([1]; patients taking any diuretics, 400 mg daily): −15% | change in serum uric acid (sUA) from baseline ([1]; patients taking any diuretics, 600 mg daily): −24% | change in serum uric acid (sUA) from baseline ([1]; thiazide diuretic treated patients, 200 mg daily): −16% | change in serum uric acid (sUA) from baseline ([1]; thiazide diuretic treated patients, 400 mg daily): −17% | change in serum uric acid (sUA) from baseline ([1]; thiazide diuretic treated patients, 600 mg daily): −24% | Change in HbA1c (%) [3, 7]: −1.1% | End-of-study HbA1c (%) [3, 7]: 8.1% | reduction from baseline in HbA1c ([3]; 200 mg daily for 12 weeks on stable insulin): −0.9% | reduction from baseline in HbA1c ([3]; 400 mg daily for 12 weeks on stable insulin): −1.0% | Change in FPG (%) [4, 7]: −18.0% and −17.6% | End-of-study FPG [4, 7]: 136.5 mg/dL | mean observed change in FPG from baseline at Week 12 ([4]; 200 mg daily): -10.9 mg/dL | mean observed change in FPG from baseline at Week 12 ([4]; 400 mg daily): -29.2 mg/dL | Change in triglyceride [5]: -33.6 mg/dL | End-of-study triglyceride [5]: 168.6 mg/dL

Compound: O=c1[nH]cnc2c(CN3C[C@H](CO)[C@@H](O)C3)c[nH]c12 [Ulodesine, 7-(((3R,4R)-3-hydroxy-4-(hydroxymethyl)pyrrolidin-1-yl)methyl)-3H-pyrrolo[3,2-d]pyrimidin-4(5H)-one]
effect on serum uric acid [6]: rapidly and significantly reduced serum uric acid
